Like-named read-outs stand apart in the source and are kept apart here.
Experiments:
HIV-1 (H9IIIB virus) = assay: Viking Assay: antiviral potency in a multiple round HIV-1 infection assay (MT4-GFP cells); format: cell-based; conditions: Human immunodeficiency virus 1, 10% normal human serum, read-out: Viking, EC50 (10% NHS)
Method: Assessing antiviral potency in a multiple round HIV-1 infection assay. HIV-1 replication was monitored using MT4-gag-GFP clone D3 (hereafter designate MT4-GFP), which are MT-4 cells modified to harbor a GFP reporter gene, the expression of which is dependent on the HIV-1 expressed proteins tat and rev. Productive infection of an MT4-GFP cell with HIV-1 results in GFP expression approximately 24 h post-infection.
MT4-GFP cells were maintained at 37° C./5% CO2/90% relative humidity in RPMI 1640 supplemented with 10% fetal bovine serum, 100 U/mL penicillin/streptomycin, and 400 μg/mL G418 to maintain the reporter gene. For infections, MT4-GFP cells were placed in the same medium lacking G418 and infected overnight with H9IIIB virus at an approximate multiplicity of infection of 0.01 in the same incubation conditions. Cells were then washed and re-suspended in either RPMI 1640 containing 10% or 50% normal human serum at 1.6×10^5 cells/mL (10% or 50% NHS conditions) or in 100% normal human serum at 2×10^5 cells/mL (100% NHS conditions). […]
Infected cells were quantified at two time points, ˜48 h and ˜72 h post-infection, by counting the number of green cells in each well using an Acumen eX3 scanner. […] Inhibition of R0 is calculated for each well, and EC50s determined by non-linear 4-parameter curve fitting.

[1] = test system: wild-type HIV-1-GFP virus; assay: Antiviral Persistence in Human Peripheral Blood Mononuclear Cells (PBMC); format: cell-based; conditions: Human immunodeficiency virus 1, PBMC
Method: PBMCs were obtained from Biological Specialty Corporation, activated with 5 μg/ml PHA-P (Sigma L1668) for 72 hrs, and then washed with fresh medium. Following activation, PBMCs were cultured in media containing 10 IU/ml IL-2 (Roche 11011456001). Cells were treated with a titration of compound for 6 or 24 hrs and washed with fresh medium. To evaluate persistence of antiviral activity following wash-out, PBMCs were maintained for either 24 h or 72 h and then infected by adding wild-type HIV-1-GFP virus (17 μL/well) to the plates and incubating at 37° C./5% CO2/90% relative humidity. Infected cells were quantified at 24 h post-infection by counting the number of green cells in each well using an Acumen eX3 scanner. EC50 values in Table 3 were calculated by non-linear 4-parameter curve fitting.
The antiviral persistence assay is meant to assess for the persistence of antiviral activity upon removal of the nucleoside. […] The publication AIDS Research and Therapy, 2009, 6:5, highlights the value of antiviral persistence.

[2] = molecular target: T1, adenosine deaminase (ADA) type 1 (Homo sapiens, UniProt P00813); assay: Adenosine Deaminase (ADA) Half-Life; format: in vitro ADME; conditions: human ADA type 1 (adenosine deaminase) in Tris-HCl buffer, time for 50% conversion to inosine product, Tris-HCl buffer pH 7.5, 40° C., LCMS
T1 sequence (P00813 1-363): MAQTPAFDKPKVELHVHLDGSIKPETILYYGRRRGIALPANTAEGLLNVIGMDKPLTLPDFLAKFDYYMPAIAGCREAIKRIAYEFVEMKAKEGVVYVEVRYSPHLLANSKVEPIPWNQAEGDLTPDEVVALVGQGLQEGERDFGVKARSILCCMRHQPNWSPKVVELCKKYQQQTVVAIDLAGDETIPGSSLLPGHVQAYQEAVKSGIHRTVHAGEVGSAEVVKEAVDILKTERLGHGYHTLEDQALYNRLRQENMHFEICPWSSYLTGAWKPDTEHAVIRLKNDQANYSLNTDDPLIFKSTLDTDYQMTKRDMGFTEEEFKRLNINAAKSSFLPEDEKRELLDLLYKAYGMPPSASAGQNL
Method: The data in Table 4 was generated by testing the reactivity of the substrate compound with human ADA type 1 in the presence of Tris-HCl buffer (pH 7.5) at 40° C. and monitoring by LCMS for consumption of starting material. The time necessary for 50% conversion to the corresponding inosine product is noted as the T1/2 in Table 4. It is known that deamination by adenosine deaminase decreases the therapeutic potential of adenosine-like nucleoside inhibitors especially in vivo (see references below). […] It is possible that compounds that are more resistant to ADA will have better pharmacokinetic properties.

[3] = test system: wild-type and multi-drug resistant HIV-1 strains; conditions: cited from earlier work
HIV-1 RT enzyme = molecular target: T2, HIV-1 RT enzyme (Human immunodeficiency virus type 1 group M subtype B, UniProt P04585); assay: RT Polymerase Assay; format: biochemical
T2 construct: Full-length wild-type and 2 mutant RT proteins were expressed in Escherichia coli BL21(DE3) cells and purified; made in house; host or cells: Escherichia coli BL21(DE3)
Method: Full-length wild-type and 2 mutant RT proteins were expressed in Escherichia coli BL21(DE3) cells and purified. Briefly, the heterodimeric nucleic acid substrate used in the HIV-1 RT polymerase reactions was generated by annealing biotinylated DNA primer to a 500 nucleotide RNA template. The HIV-1 RT enzyme (final concentration of 50 pM) was combined with an inhibitor compound or DMSO (10% DMSO in the final reaction mixture) in assay buffer (62.5 mM Tris-HCl, pH 7.8, 1.25 mM dithiothreitol, 7.5 mM MgCl2, 100 mM KCl, 0.03% CHAPS, 0.125 mM EGTA). This mixture was pre-incubated for 30 minutes at room temperature in microtiter plates. The polymerization reaction was initiated by the addition of template/primer substrate (final concentration: 16.6 nM) and dNTPs (final concentration: 2 μM dCTP, dGTP, dATP, and 66.6 nM Ru-dUTP). After 90 min of incubation at 37° C., reactions were quenched by the addition of EDTA (25 mM). The resulting mixture was incubated for an additional 5 minutes at room temperature followed by transferring the solution (50 μL) to blocked avidin plate from Meso Scale Discovery (MSD). The mixtures were incubated at room temperature for 60 min prior to the quantification of the reaction product via an ECL 6000 imager instrument.

Cc1cn([C@H]2C[C@H](N=[N+]=[N-])[C@@H](CO)O2)c(=O)[nH]c1=O [AZT, 3′-azido-3′-deoxythymidine]
EC50 (HIV-1 (H9IIIB virus)): 37 nM
EC50 ([1]; 24 h, read-out: EC50 24 h): 19 nM
EC50 ([1]; 72 h, read-out: EC50 72 h): 68 nM

Nc1ncnc2c1ncn2[C@H]1C[C@H](O)[C@@H](CO)O1 [Deoxy- adenosine, deoxyadenosine]
half-life [2]: < 0.167 h

C#C[C@]1(CO)O[C@@H](n2cnc3c(N)ncnc32)C[C@@H]1O [EDA, (2R,3S,5R)-5-(6-amino-9H-purin-9-yl)-2-ethynyl-2-(hydroxymethyl)tetrahydrofuran-3-ol]
half-life [2]: < 1 h

C#C[C@]1(CO)O[C@@H](n2cnc3c(N)nc(F)nc32)C[C@@H]1O [EFdA, (2R,3S,5R)-5-(6-amino-2-fluoro-9H-purin-9-yl)-2-ethynyl-2-(hydroxymethyl)tetrahydrofuran-3-ol]
antiviral activity [3]: potent antiviral activity

C#C[C@]1(CO)O[C@@H](n2cc(F)c3c(N)nc(Cl)nc32)C[C@@H]1O [Example 1, (2R,3S,5R)-5-(4-amino-2-chloro-5-fluoro-7H-pyrrolo[2,3-d]pyrimidin-7-yl)-2-ethynyl-2-(hydroxymethyl)tetrahydrofuran-3-ol]
EC50 (HIV-1 (H9IIIB virus)): 1.2 nM
EC50 ([1]; 24 h, read-out: EC50 24 h): 0.38 nM
EC50 ([1]; 72 h, read-out: EC50 72 h): 3.8 nM
half-life ([2]; value given as symbol): > 240 h

C#C[C@]1(COP(=O)(O)OP(=O)(O)OP(=O)(O)O)O[C@@H](n2cc(F)c3c(N)nc(Cl)nc32)C[C@@H]1O [Example 2, ammonium ((2R,3S,5R)-5-(4-amino-2-chloro-5-fluoro-7H-pyrrolo[2,3-d]pyrimidin-7-yl)-2-ethynyl-3-hydroxytetrahydrofuran-2-yl)methyl triphosphate]
IC50 (HIV-1 RT enzyme): 490 nM

From patent US10953029B2, “4′-Substituted nucleoside reverse transcriptase inhibitors and preparations thereof” (Merck Sharp & Dohme Corp., priority 2015, dated 2021)
